Reference: PMC7897990, “TriTOX: A novel Trichomonas vaginalis assay platform for high-throughput screening of compound libraries” (International Journal for Parasitology: Drugs and Drug …, 2021)
Where two headings read alike, the source gives them in different places.

Key:
[1] = test system: Trichomonas vaginalis G3 trophozoites; details: for T.vaginalis_Absorbance_Rep1: replicate 1, raw absorbance; for T.vaginalis_Absorbance_Rep2: replicate 2, raw absorbance; for T. vaginalis HTS result in words: 384-well, 25 μL, 10,000 cells/mL, 48 h, biological duplicates, hit = >50% inhibition
[2] = test system: nontumorigenic neonatal foreskin fibroblast (NFF) cell line
[3] = HTS, parasite screen at 1 µg/mL, replicate 1
[4] = HTS, parasite screen at 1 µg/mL
[5] = HTS, parasite screen at 1 µg/mL, replicate 2
[6] = replicate 1, parasite screen at 1 µg/mL
[7] = replicate 2, parasite screen at 1 µg/mL
[8] = parasite screen at 1 µg/mL, replicate 1
[9] = parasite screen at 1 µg/mL, replicate 2
[10] = NFF_NS1 screen at 5 µg/mL, NFF cells
[11] = HTS single concentration, parasite screen 1 µg/mL, replicate 1
[12] = HTS single concentration, parasite screen 1 µg/mL, replicate 2
[13] = NFF_NS1 screen 5 µg/mL, single concentration
[14] = HTS replicate 1, parasite screen 1 µg/mL
[15] = HTS replicate 2, parasite screen 1 µg/mL

CC1=C[C@H](O/C=C2/C(=O)O[C@@H]3c4ccccc4C[C@H]23)OC1=O [GR24]
T.vaginalis_%inb_Rep1 [1, 3]: 14.00% | T.vaginalis_Absorbance_Rep1 [1, 4]: 0.978 | T.vaginalis_%inb_Rep2 [1, 5]: 4.49% | T.vaginalis_Absorbance_Rep2 [1, 4]: 0.705 | NFF_Activity ([2]; NFF_NS1 screen at 5 µg/mL): I (otherwise these were reported as inactive (I))

CC[C@H](C)[C@H]1O[C@]2(CC[C@@H]1C)C[C@@H]1C[C@@H](C/C=C(\C)[C@@H](O[C@H]3C[C@H](OC)[C@@H](O[C@H]4C[C@H](OC)[C@@H](O)[C@H](C)O4)[C@H](C)O3)[C@@H](C)/C=C/C=C3\CO[C@@H]4[C@H](O)C(C)=C[C@@H](C(=O)O1)[C@]34O)O2 [BIA-I1119]
T.vaginalis_%inb_Rep1 [1, 6]: 13.79% | T.vaginalis_%inb_Rep2 [1, 7]: 12.96% | NFF_Activity ([2]; NFF cells, screen at 5 µg/mL): I (otherwise these were reported as inactive (I))

C/C=C/C1=CC(=O)[C@@H](O)[C@@H]1O [BIA-T1408]
T.vaginalis_%inb_Rep1 [1, 8]: 6.82% | T.vaginalis_%inb_Rep2 [1, 9]: 13.71% | NFF_Activity [2, 10]: I (otherwise these were reported as inactive (I))

CC[C@H]1OC(=O)[C@H](C)[C@@H](O[C@H]2C[C@@](C)(O)[C@@H](O)[C@H](C)O2)[C@H](C)[C@@H](O[C@@H]2O[C@H](C)C[C@H](N(C)C)[C@H]2O)[C@](C)(O)C[C@@H](C)C(=O)[C@H](C)[C@@H](O)[C@]1(C)O [Erythromycin C]
T.vaginalis_%inb_Rep1 [1, 3]: 5.17% | T.vaginalis_Absorbance_Rep1 [1, 4]: 0.805 | T.vaginalis_%inb_Rep2 [1, 5]: 6.87% | T.vaginalis_Absorbance_Rep2 [1, 4]: 0.715 | NFF_Activity ([2]; NFF_NS1 screen at 5 µg/mL): I (otherwise these were reported as inactive (I))

CCCC[C@H]1C(=O)O[C@H](C)[C@H](NC(=O)c2cccc(NC=O)c2O)C(=O)O[C@@H](C)[C@@H]1OC(=O)CC(C)C [BIA-A1444]
T.vaginalis_%inb_Rep1 [1, 11]: 12.87% | T.vaginalis_%inb_Rep2 [1, 12]: 14.61% | NFF_Activity [2, 13]: I (otherwise these were reported as inactive (I))

CO[C@@H]1C[C@H]2C=C[C@H]3[C@H]4O[C@]2(/C(C)=C\[C@@H](C)[C@@H]([C@@H](C)O)OC1=O)[C@@H]3[C@H](O)[C@@H](C)[C@H]4O [Nodusmicin]
T.vaginalis_%inb_Rep1 [1, 14]: 11.16% | T.vaginalis_%inb_Rep2 [1, 15]: 10.52% | NFF_Activity ([2]; NFF fibroblasts, single concentration 5 µg/mL): I (otherwise these were reported as inactive (I))

CO[C@H]1C[C@@H]2CC[C@@H](C)[C@@](O)(O2)C(=O)C(=O)N2CCCC[C@H]2C(=O)O[C@H]([C@H](C)C[C@@H]2CC[C@@H](OC(=O)C(C)(CO)CO)[C@H](OC)C2)CC(=O)[C@H](C)/C=C(\C)[C@@H](O)[C@@H](OC)C(=O)[C@H](C)C[C@H](C)/C=C/C=C/C=C/1C [BIA-T1386]
T.vaginalis_%inb_Rep1 [1, 8]: 7.60% | T.vaginalis_%inb_Rep2 [1, 9]: 9.14% | NFF_Activity [2, 10]: I (otherwise these were reported as inactive (I))

CC[C@H](C)[C@@H]1NC(=O)C(C(C)=O)=C1O [BIA-T1277]
T.vaginalis_%inb_Rep1 [1, 8]: 8.60% | T.vaginalis_%inb_Rep2 [1, 9]: 14.81% | NFF_Activity [2, 10]: I (otherwise these were reported as inactive (I))

Nc1ncnc2c1ncn2[C@@H]1O[C@H](C[C@@H](N)CC[C@H](N)C(=O)O)[C@@H](O)[C@H]1O [BIA-S1376]
T.vaginalis_%inb_Rep1 [1, 8]: 11.43% | T.vaginalis_%inb_Rep2 [1, 9]: 25.29% | NFF_Activity [2, 10]: I (otherwise these were reported as inactive (I))

C=C[C@@](C)(CCC=C(C)C)c1ccc2c3c(c[nH]c13)C[C@@H](CO)NC(=O)[C@H](C(C)C)N2C [BIA-T1429]
T.vaginalis_%inb_Rep1 [1, 8]: 11.80% | T.vaginalis_%inb_Rep2 [1, 9]: 16.64% | NFF_Activity [2, 10]: I (otherwise these were reported as inactive (I))

COc1cc(/C=C/C(=O)O)cc(OC)c1O [BIA-S1730]
T.vaginalis_%inb_Rep1 [1, 8]: 9.02% | T.vaginalis_%inb_Rep2 [1, 9]: 14.02% | NFF_Activity [2, 10]: I (otherwise these were reported as inactive (I))

O=C1C=CC(=O)c2c(O)cccc21 [BIA-J1739]
T.vaginalis_%inb_Rep1 [1, 6]: 12.73% | T.vaginalis_%inb_Rep2 [1, 7]: 10.78% | NFF_Activity ([2]; NFF cells, screen at 5 µg/mL): A (active (A) compounds having >25% inhibitory activity)

C=CCNC1=C2CC(C)CC(OC)C(O)C(C)C=C(C)C(OC(N)=O)C(OC)C=CC=C(C)C(=O)NC(=CC1=O)C2=O (stereo not drawn) [BIA-A1923]
T.vaginalis_%inb_Rep1 [1, 11]: 11.27% | T.vaginalis_%inb_Rep2 [1, 12]: 34.13% | NFF_Activity [2, 13]: I (otherwise these were reported as inactive (I))

COC12c3c(C)cc(O)c4c(=O)occ(c34)C(=O)C1C13COC(=O)c4c(O)cc(C)c(c41)C(=O)C2C3OC(C)=O (stereo not drawn) [Duclauxin]
T.vaginalis_%inb_Rep1 [1, 3]: 14.59% | T.vaginalis_Absorbance_Rep1 [1, 4]: 0.98 | T.vaginalis_%inb_Rep2 [1, 5]: 17.79% | T.vaginalis_Absorbance_Rep2 [1, 4]: 0.866 | NFF_Activity ([2]; NFF_NS1 screen at 5 µg/mL): I (otherwise these were reported as inactive (I))

CN(C)C1C(=O)C(C(N)=O)=C(O)C2(O)C(=O)CC(C3(C)OC(=O)c4c(O)ccc(Cl)c43)CC12 (stereo not drawn) [BIA-I1656]
T.vaginalis_%inb_Rep1 [1, 6]: 15.87% | T.vaginalis_%inb_Rep2 [1, 7]: 12.89% | NFF_Activity ([2]; NFF cells, screen at 5 µg/mL): I (otherwise these were reported as inactive (I))

CO[C@H]1C[C@@H]2CC[C@@H](C)[C@@](O)(O2)C(=O)C(=O)N2CCCC[C@H]2C(=O)O[C@H]([C@H](C)C[C@@H]2CC[C@@H](OP(C)(C)=O)[C@H](OC)C2)CC(=O)[C@H](C)/C=C(\C)[C@@H](O)[C@@H](OC)C(=O)[C@H](C)C[C@H](C)/C=C/C=C/C=C/1C [BIA-R1450]
T.vaginalis_%inb_Rep1 [1, 8]: 8.81% | T.vaginalis_%inb_Rep2 [1, 9]: 19.01% | NFF_Activity [2, 10]: I (otherwise these were reported as inactive (I))

COc1cc2c(c3oc(=O)c4c(c13)CCC4=O)[C@@H]1CCO[C@@H]1O2 [BIA-A1233]
T.vaginalis_%inb_Rep1 [1, 11]: 13.46% | T.vaginalis_%inb_Rep2 [1, 12]: 11.14% | NFF_Activity [2, 13]: I (otherwise these were reported as inactive (I))

COC1=CC(C)=CC(C)C(O)C(C)CC(C)=CC=CC(OC)C(C(C)C(O)C(C)C2(O)CC(O)C(C)C(C(C)C)O2)OC1=O (stereo not drawn) [BIA-B1012]
T.vaginalis_%inb_Rep1 [1, 11]: 15.99% | T.vaginalis_%inb_Rep2 [1, 12]: 16.70% | NFF_Activity [2, 13]: I (otherwise these were reported as inactive (I))

CCCCCC(=O)C(CCCC)c1oc(=O)c(CCCC)c(O)c1CCCC (stereo not drawn) [Elasnin]
T.vaginalis_%inb_Rep1 [1, 3]: 13.95% | T.vaginalis_Absorbance_Rep1 [1, 4]: 0.968 | T.vaginalis_%inb_Rep2 [1, 5]: 11.14% | T.vaginalis_Absorbance_Rep2 [1, 4]: 0.774

NC(=O)c1cccc2nc3ccccc3nc12 [Oxychloroaphine]
T.vaginalis_%inb_Rep1 [1, 14]: 11.41% | T.vaginalis_%inb_Rep2 [1, 15]: 13.92%

ikarugamycin [reference compound]
T. vaginalis HTS result in words [1]: supported the anti-trichomonal activity

Enniatin A1
T.vaginalis_Absorbance_Rep1 [1, 4]: 0.98 | T.vaginalis_Absorbance_Rep2 [1, 4]: 0.8

O=c1c2cccn2c(=O)c2cccn12 [Pyrocoll]
T.vaginalis_%inb_Rep1 [1, 14]: 15.47% | T.vaginalis_%inb_Rep2 [1, 15]: 11.29%

CN[C@@H]1C[C@H]2O[C@@](C)([C@@H]1OC)n1c3ccccc3c3c4c(c5c6ccccc6n2c5c31)C(=O)NC4 [staurosporine, reference compound]
T. vaginalis HTS result in words [1]: supported the anti-trichomonal activity

CO[C@H]1/C=C\C=C(/C)C(=O)NC2=CC(=O)C(NCCN(C)C)=C(C[C@@H](C)C[C@H](OC)[C@H](O)[C@@H](C)/C=C(\C)[C@@H]1OC(N)=O)C2=O [17-DAAG, 17-dimethylaminoethylamino-17-demethoxygeldanamycin, reference compound]
T. vaginalis HTS result in words [1]: partial hits

CC(=O)OCc1c(O)c2c(c3c1OC(=O)c1c(C)cc(O)c(C=O)c1O3)C(O)OC2=O (stereo not drawn) [Galbinic acid]
T.vaginalis_%inb_Rep1 [1, 3]: 15.37% | T.vaginalis_Absorbance_Rep1 [1, 4]: 1.005 | T.vaginalis_%inb_Rep2 [1, 5]: 12.89% | T.vaginalis_Absorbance_Rep2 [1, 4]: 0.836

CC1=C[C@H]2O[C@@H]3[C@H](O)[C@@H](O)[C@](C)([C@@]2(CO)[C@H](O)C1=O)[C@]31CO1 [Nivalenol]
T.vaginalis_%inb_Rep1 [1]: 9.96% | T.vaginalis_%inb_Rep2 [1]: 14.26%

COc1c(OC)c(-c2c[nH]c3ccc(O)cc23)c(OC)c(OC)c1-c1c[nH]c2ccccc12 [Petromurin C]
T.vaginalis_%inb_Rep1 [1, 14]: 7.91% | T.vaginalis_%inb_Rep2 [1, 15]: 12.64%

C=C[C@]1(C)C[C@@H](O)[C@]2(C)[C@H](C)CC[C@]3(CCC(=O)[C@H]32)[C@@H](C)[C@@H]1O [Mutilin]
T.vaginalis_%inb_Rep1 [1, 14]: 12.02% | T.vaginalis_%inb_Rep2 [1, 15]: 13.21%

COc1ccc([C@@]2(O)c3c(ccc(/C=C/[C@]4(C)CCC(C)(C)CO4)c3O)NC(=O)[C@@H]2OC)cc1 [Penigequinolone A]
T.vaginalis_%inb_Rep1 [1, 14]: 16.23% | T.vaginalis_%inb_Rep2 [1, 15]: 11.87%

CN(C)[C@@H]1C(O)=C(C(N)=O)C(=O)[C@@]2(O)C(O)=C3C(=O)c4c(O)cccc4[C@@](C)(O)[C@H]3C[C@@H]12 [BIA-T1334]
T.vaginalis_%inb_Rep1 [1, 8]: 9.28% | T.vaginalis_%inb_Rep2 [1, 9]: 5.48%
